For 24 compounds, IC50 results are on record in patent publication US11478460B2, “Diaryl substituted 6,5-fused ring compounds as C5aR inhibitors” (CHEMOCENTRYX, INC., priority 2017, dated 2022).

Each structure is given as a SMILES string.

The target in the assay is C5aR (Homo sapiens (Human), UniProt P21730). Put plainly: Chemotaxis assay using U937 cells (C5aR mediated migration). Format: cell-based. The following applies: read-out: Mig IC50. Put shortly: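 U937 monocytic cells, pretreated overnight with 0.5 mM cyclic AMP, placed at 100,000 cells in the upper well above 5 μm polycarbonate filters. Lower well held 0.03 nM C5a plus compound in HBSS/1% FBS; after 1.5 h at 37° C migrated cells counted directly or by CyQuant, giving IC50.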
Chain of C5aR (P21730 whole entry): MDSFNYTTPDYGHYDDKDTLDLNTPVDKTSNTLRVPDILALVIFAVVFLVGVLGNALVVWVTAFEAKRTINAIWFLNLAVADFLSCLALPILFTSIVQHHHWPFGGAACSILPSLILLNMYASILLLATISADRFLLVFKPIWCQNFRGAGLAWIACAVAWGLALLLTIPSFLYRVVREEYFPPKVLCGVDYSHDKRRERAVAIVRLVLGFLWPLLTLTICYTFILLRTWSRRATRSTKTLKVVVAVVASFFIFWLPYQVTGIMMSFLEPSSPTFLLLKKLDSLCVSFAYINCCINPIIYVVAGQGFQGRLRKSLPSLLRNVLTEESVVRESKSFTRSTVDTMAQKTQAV
In the case of `Cc1cccc(C)c1-n1nc2c(c1-c1ccc(NC(N)=O)cc1)CN(C(=O)OC(C)(C)C)CC2` [Example 1.417], the IC50 was 50 to 500 nM.

Regarding `Cc1cccc(OCC(C)C)c1-n1nc2c(c1-c1ccc(NC(N)=O)cc1)CN(c1ccc(F)cc1C(C)C)CC2` [Example 1.419], the IC50 was 5 to 50 nM.

Take `CCc1cccc(CC)c1-n1nc2c(c1-c1ccc(NC(N)=O)cc1)CN(C(CC)c1ccccc1C(F)(F)F)CC2` (stereo not drawn) [Example 1.286]: the IC50 was 5 to 50 nM.

As for `Cc1cccc(OCC(C)C)c1-n1nc2c(c1-c1cc(F)c(NC(N)=O)cc1F)CN(c1ccnc(C(C)C)n1)CC2` [Example 1.139], the IC50 is ≤ 5 nM.

As to `Cc1ccc(C(C)(C)C)cc1N1CCc2nn(-c3c(C)cccc3CCC(C)C)c(-c3ccc(NC(N)=O)cc3)c2C1` [Example 1.387], the IC50 lay within 5 to 50 nM.

As for `Cc1cccc(OCC(C)C)c1-n1nc2c(c1-c1ccc(NC(N)=O)cc1)CN(CC(C)(C)C)CC2` [Example 1.405], the IC50 was in the range of 5 to 50 nM.

Turning to `Cc1cccc(OCC(C)C)c1-n1nc2c(c1-c1ccc(NC(N)=O)cc1)CN(CC(C)C)CC2` [Example 1.385], the IC50 was 50 to 500 nM.

Consider `Cc1cc(-c2c3c(nn2-c2c(C)cccc2OCC(C)C)CCN(c2ncc(C(F)(F)F)cc2F)C3)cc(C)c1NC(N)=O` [Example 1.266], for which the IC50 is > 500 nM.

Take `CC(C)COc1cccc(F)c1-n1nc2c(c1-c1cc(F)c(NC(N)=O)cc1F)CN(C(C)(C)c1ccccc1)CC2` [Example 1.198]: the IC50 is ≤ 5 nM.

Turning to `COc1cccc(F)c1-n1nc2c(c1-c1cc(F)c(NC(N)=O)cc1F)CN(c1ncc(Cl)cc1Cl)CC2` [Example 1.179], the IC50 lay in the range of 5 to 50 nM.

With `Cc1cccc(OCC(C)C)c1-n1nc2c(c1-c1ccc(NC(N)=O)cc1)CN(c1ccc(F)cc1C(F)(F)F)CC2` [Example 1.318], the IC50 was ≤ 5 nM.

Turning to `Cc1cc(NC(N)=O)c(F)cc1-c1c2c(nn1-c1c(C)cccc1OCC(C)C)CCN(c1ncc(C(F)(F)F)cc1F)C2` [Example 1.211], the IC50 is ≤ 5 nM.

For the compound `CCc1cccc(CC)c1-n1nc2c(c1-c1cc(F)c(NC(N)=O)cc1F)CN(Cc1cc(C(F)(F)F)ccc1C(F)(F)F)CC2` [Example 1.055], the IC50 is ≤ 5 nM.

As to `CCCC(C)N1CCc2nn(-c3c(C)cccc3OCC(C)C)c(-c3ccc(NC(N)=O)c(F)c3)c2C1` (stereo not drawn) [Example 1.247], the 50% inhibitory concentration (IC50) is ≤ 5 nM.

As for `CCc1cccc(CC)c1-n1nc2c(c1-c1ccc(NC(N)=O)cc1)CN(Cc1cc(Cl)ccc1C(F)(F)F)CC2` [Example 1.292], the IC50 was 5 to 50 nM.

For the compound `Cc1cccc(OCC(C)C)c1-n1nc2c(c1-c1ccc(NC(N)=O)cc1)CN(CC(C)(C(F)(F)F)C(F)(F)F)CC2` [Example 1.344], the IC50 was ≤ 5 nM.

As for `Cc1cc(F)c(C(C)C)cc1N1CCc2nn(-c3c(C)cccc3OCC(C)C)c(-c3ccc(NC(N)=O)cc3)c2C1` [Example 1.427], the IC50 is ≤ 5 nM.

Take `CCc1cccc(CC)c1-n1nc2c(c1-c1cc(F)c(NC(N)=O)cc1F)CN(C(CO)c1ccccc1)CC2` (stereo not drawn) [Example 1.079]: the concentration for half-maximal inhibition (IC50) was in the range of 5 to 50 nM.

As to `Cc1cccc(C)c1-n1nc2c(c1-c1cc(F)c(NC(N)=O)cc1F)CN(c1cc(C(F)(F)F)ccc1F)CC2` [Example 1.094], the IC50 was ≤ 5 nM.

On to `Cc1cccc(OCC(C)C)c1-n1nc2c(c1-c1ccc(NC(N)=O)c(F)c1)CN(S(=O)(=O)c1ccccc1)CC2` [Example 1.237], for which the half-maximal inhibitory concentration (IC50) fell in the range of 5 to 50 nM.

As to `Cc1cccc(OCC(C)C)c1-n1nc2c(c1-c1ccc(NC(N)=O)c(F)c1)CN(c1ncc(Cl)cc1Cl)CC2` [Example 1.252], the IC50 was ≤ 5 nM.

In the case of `COc1cc(NC(N)=O)c(F)cc1-c1c2c(nn1-c1c(C)cccc1C)CCN(c1ncc(Cl)cc1Cl)C2` [Example 1.123], the IC50 was ≤ 5 nM.

As for `NC(=O)Nc1cc(F)c(-c2c3c(nn2-c2c(F)cccc2F)CCN(c2ncc(Cl)cc2Cl)C3)cc1F` [Example 1.183], the IC50 fell in the range of 5 to 50 nM.

In the case of `Cc1cccc(C)c1-n1nc2c(c1-c1cc(F)c(NC(N)=O)cc1F)CN(C(CO)c1ccccc1)CC2` (stereo not drawn) [Example 1.087], the IC50 was 50 to 500 nM.
